Results taken from ChEMBL document CHEMBL1158330, “Two new puriniums and three new pyrimidines from Heterostemma brownii” (J Nat Prod, 1997).

Experiments:
K562 [1] = test: Cytotoxicity against human K562 cells at 1000 uM after 72 hrs by MTT assay relative to control; assay type: functional; settings: K562, 72 h
[2] = Cytotoxicity against human HCE6 cells at 100 uM after 72 hrs by MTT assay relative to control; assay type: functional; settings: HCE6, 72 h
Huh-7 [3] = test: Cytotoxicity against human HuH7 cells at 10 uM after 72 hrs by MTT assay relative to control; assay type: functional; settings: Huh-7, 72 h
K562 [4] = test: Cytotoxicity against human K562 cells after 72 hrs by MTT assay; assay type: functional, cell-based; settings: K562, 72 h
HL-60 [5] = test: Cytotoxicity against human HL60 cells at 100 uM after 72 hrs by MTT assay relative to control; assay type: functional; settings: HL-60, 72 h
[6] = Cytotoxicity against human HCE6 cells at 1000 uM after 72 hrs by MTT assay relative to control; assay type: functional; settings: HCE6, 72 h
HL-60 [7] = test: Cytotoxicity against human HL60 cells at 10 uM after 72 hrs by MTT assay relative to control; assay type: functional; settings: HL-60, 72 h
HL-60 [8] = test: Cytotoxicity against human HL60 cells at 1000 uM after 72 hrs by MTT assay relative to control; assay type: functional; settings: HL-60, 72 h
MOLT-4 [9] = test: Cytotoxicity against human MOLT4 cells at 1000 uM after 72 hrs by MTT assay relative to control; assay type: functional; settings: MOLT-4, 72 h
Huh-7 [10] = test: Cytotoxicity against human HuH7 cells at 1 uM after 72 hrs by MTT assay relative to control; assay type: functional; settings: Huh-7, 72 h
Huh-7 [11] = test: Cytotoxicity against human HuH7 cells at 100 uM after 72 hrs by MTT assay relative to control; assay type: functional; settings: Huh-7, 72 h
[12] = Cytotoxicity against human HCE6 cells after 72 hrs by MTT assay; assay type: functional, cell-based; settings: HCE6, 72 h
MOLT-4 [13] = test: Cytotoxicity against human MOLT4 cells at 1 uM after 72 hrs by MTT assay relative to control; assay type: functional; settings: MOLT-4, 72 h
Huh-7 [14] = test: Cytotoxicity against human HuH7 cells at 1000 uM after 72 hrs by MTT assay relative to control; assay type: functional; settings: Huh-7, 72 h
Huh-7 [15] = test: Cytotoxicity against human HuH7 cells at 100 nM after 72 hrs by MTT assay relative to control; assay type: functional; settings: Huh-7, 72 h
HL-60 [16] = test: Cytotoxicity against human HL60 cells at 100 nM after 72 hrs by MTT assay relative to control; assay type: functional; settings: HL-60, 72 h
K562 [17] = test: Cytotoxicity against human K562 cells at 1 uM after 72 hrs by MTT assay relative to control; assay type: functional; settings: K562, 72 h
K562 [18] = test: Cytotoxicity against human K562 cells at 10 uM after 72 hrs by MTT assay relative to control; assay type: functional; settings: K562, 72 h
K562 [19] = test: Cytotoxicity against human K562 cells at 100 uM after 72 hrs by MTT assay relative to control; assay type: functional; settings: K562, 72 h
[20] = Cytotoxicity against human HCE6 cells at 10 uM after 72 hrs by MTT assay relative to control; assay type: functional; settings: HCE6, 72 h
[21] = Cytotoxicity against human HCE6 cells at 1 uM after 72 hrs by MTT assay relative to control; assay type: functional; settings: HCE6, 72 h
MOLT-4 [22] = test: Cytotoxicity against human MOLT4 cells after 72 hrs by MTT assay; assay type: functional, cell-based; settings: MOLT-4, 72 h
MOLT-4 [23] = test: Cytotoxicity against human MOLT4 cells at 100 uM after 72 hrs by MTT assay relative to control; assay type: functional; settings: MOLT-4, 72 h
[24] = Cytotoxicity against human HCE6 cells at 100 nM after 72 hrs by MTT assay; assay type: functional; settings: HCE6, 72 h
K562 [25] = test: Cytotoxicity against human K562 cells at 100 nM after 72 hrs by MTT assay relative to control; assay type: functional; settings: K562, 72 h
MOLT-4 [26] = test: Cytotoxicity against human MOLT4 cells at 100 nM after 72 hrs by MTT assay relative to control; assay type: functional; settings: MOLT-4, 72 h
MOLT-4 [27] = test: Cytotoxicity against human MOLT4 cells at 10 uM after 72 hrs by MTT assay relative to control; assay type: functional; settings: MOLT-4, 72 h
HL-60 [28] = test: Cytotoxicity against human HL60 cells at 1 uM after 72 hrs by MTT assay relative to control; assay type: functional; settings: HL-60, 72 h
Huh-7 [29] = test: Cytotoxicity against human HuH7 cells after 72 hrs by MTT assay; assay type: functional, cell-based; settings: Huh-7, 72 h
HL-60 [30] = test: Cytotoxicity against human HL60 cells after 72 hrs by MTT assay; assay type: functional, cell-based; settings: HL-60, 72 h

Structure (SMILES) | viability at 1000 µM (K562 [1]) [%] | viability at 100 µM [2] [%] | viability at 10 µM (Huh-7 [3]) [%] | IC50 (K562 [4]) [µM] | viability at 100 µM (HL-60 [5]) [%] | viability at 1000 µM [6] [%] | viability at 10 µM (HL-60 [7]) [%] | viability at 1000 µM (HL-60 [8]) [%] | viability at 1000 µM (MOLT-4 [9]) [%] | viability at 1 µM (Huh-7 [10]) [%] | viability at 100 µM (Huh-7 [11]) [%] | IC50 [12] [µM] | viability at 1 µM (MOLT-4 [13]) [%] | viability at 1000 µM (Huh-7 [14]) [%] | viability at 0.1 µM (Huh-7 [15]) [%] | viability at 0.1 µM (HL-60 [16]) [%] | viability at 1 µM (K562 [17]) [%] | viability at 10 µM (K562 [18]) [%] | viability at 100 µM (K562 [19]) [%] | viability at 10 µM [20] [%] | other results
COc1nc(N(C)C)nc2c1[n+](C)cn2C [HETEROMINE A] | 5.9 | 8.2 | 91.1 | 9.88 | 8.2 | 1.7 | 42.7 | 5.7 | 5.6 | 102 | 43.1 | 4.08 | 90.7 | 11.1 | 97.3 | 94.5 | 107 | 49.7 | 33.5 | 26.2 | viability at 1 µM [21]: 87.4%; IC50 (MOLT-4 [22]): 14.4 µM; viability at 100 µM (MOLT-4 [23]): 24.8%; viability at 0.1 µM [24]: 92.4%; viability at 0.1 µM (K562 [25]): 94.3%; viability at 0.1 µM (MOLT-4 [26]): 94.7%; viability at 10 µM (MOLT-4 [27]): 54.8%; viability at 1 µM (HL-60 [28]): 99.3%; IC50 (Huh-7 [29]): 71.8 µM; IC50 (HL-60 [30]): 7.43 µM
CNc1nc(OC)c2c(n1)n(C)c[n+]2C [HETEROMINE B] | 27.6 | 22.1 | 94.3 | 62.9 | 20.3 | 10.6 | 72.6 | 14.9 | 17.4 | 103 | 92.5 | 36 | 91 | 28.8 | 104 | 114 | 95.5 | 88.2 | 40.4 | 85 | viability at 1 µM [21]: 82.2%; IC50 (MOLT-4 [22]): 52.3 µM; viability at 100 µM (MOLT-4 [23]): 35.9%; viability at 0.1 µM [24]: 82.2%; viability at 0.1 µM (K562 [25]): 96.8%; viability at 0.1 µM (MOLT-4 [26]): 107%; viability at 10 µM (MOLT-4 [27]): 86%; viability at 1 µM (HL-60 [28]): 99.1%; IC50 (Huh-7 [29]): 464 µM; IC50 (HL-60 [30]): 27 µM
